Values quoted from earlier work in patent publication US20240033249A1, “Drug Implants Containing Darolutamide and Methods of Use Thereof” (The Regents of the University of California, priority 2022, published 2024).

Details: assuming 600 mg daily dose; systemic (e.g., oral) administration

CC(O)c1cc(C(=O)N[C@@H](C)Cn2ccc(-c3ccc(C#N)c(Cl)c3)n2)[nH]n1 (stereo partly shown) [Darolutamide]
steady state blood plasma concentration of Darolutamide: about 4.79 mg/L
